This is an account of results in US8633313B2, “Heterocyclic compounds and their uses” (Amgen Inc., priority 2009, dated 2014).

One assay addresses T1, PI3K delta (Homo sapiens, UniProt O00329).
T1 construct: Full length p110 subunits of PI3k α, β and δ, N-terminally labeled with polyHis tag; polyHis (N); made in house; host or cells: Sf9 insect cells (baculovirus)
Put plainly: In vitro enzyme assay, PI3K delta biochemical potency. Conditions: comparison of the two separated enantiomers. Here is the method: Full length p110 subunits of PI3k α, β and δ, N-terminally labeled with polyHis tag, were coexpressed with p85 with Baculo virus expression vectors in sf9 insect cells. P110/p85 heterodimers were purified by sequential Ni-NTA, Q-HP, Superdex-100 chromatography. Purified α, β and δ isozymes were stored at −20° C. in 20 mM Tris, pH 8, 0.2M NaCl, 50% glycerol, 5 mM DTT, 2 mM Na cholate. Truncated PI3Kγ, residues 114-1102, N-terminally labeled with polyHis tag, was expressed with Baculo virus in Hi5 insect cells. The γ isozyme was purified by sequential Ni-NTA, Superdex-200, Q-HP chromatography. The γ isozyme was stored frozen at −80° C. in NaH2PO4, pH 8, 0.2M NaCl, 1% ethylene glycol, 2 mM β-mercaptoethanol.
Assays were performed in 25 μL with the above final concentrations of components in white polyproplyene plates (Costar 3355). Phospatidyl inositol phosphoacceptor, PtdIns(4,5)P2 P4508, was from Echelon Biosciences. The ATPase activity of the alpha and gamma isozymes was not greatly stimulated by PtdIns(4,5)P2 under these conditions and was therefore omitted from the assay of these isozymes. Test compounds were dissolved in dimethyl sulfoxide and diluted with three-fold serial dilutions. The compound in DMSO (1 μL) was added per test well, and the inhibition relative to reactions containing no compound, with and without enzyme was determined. After assay incubation at rt, the reaction was stopped and residual ATP determined by addition of an equal volume of a commercial ATP bioluminescence kit (Perkin Elmer EasyLite) according to the manufacturer's instructions, and detected using a AnalystGT luminometer.

Assay [1] has as its system rheumatoid arthritis model. To be noted: in vivo; cited from earlier work.
The test system of assay [2] is systemic lupus erythematosis model. Conditions: in vivo; cited from earlier work.
Another assay deals with T2, p110δ (Homo sapiens, UniProt O00329).
T2 sequence (O00329 1-1044): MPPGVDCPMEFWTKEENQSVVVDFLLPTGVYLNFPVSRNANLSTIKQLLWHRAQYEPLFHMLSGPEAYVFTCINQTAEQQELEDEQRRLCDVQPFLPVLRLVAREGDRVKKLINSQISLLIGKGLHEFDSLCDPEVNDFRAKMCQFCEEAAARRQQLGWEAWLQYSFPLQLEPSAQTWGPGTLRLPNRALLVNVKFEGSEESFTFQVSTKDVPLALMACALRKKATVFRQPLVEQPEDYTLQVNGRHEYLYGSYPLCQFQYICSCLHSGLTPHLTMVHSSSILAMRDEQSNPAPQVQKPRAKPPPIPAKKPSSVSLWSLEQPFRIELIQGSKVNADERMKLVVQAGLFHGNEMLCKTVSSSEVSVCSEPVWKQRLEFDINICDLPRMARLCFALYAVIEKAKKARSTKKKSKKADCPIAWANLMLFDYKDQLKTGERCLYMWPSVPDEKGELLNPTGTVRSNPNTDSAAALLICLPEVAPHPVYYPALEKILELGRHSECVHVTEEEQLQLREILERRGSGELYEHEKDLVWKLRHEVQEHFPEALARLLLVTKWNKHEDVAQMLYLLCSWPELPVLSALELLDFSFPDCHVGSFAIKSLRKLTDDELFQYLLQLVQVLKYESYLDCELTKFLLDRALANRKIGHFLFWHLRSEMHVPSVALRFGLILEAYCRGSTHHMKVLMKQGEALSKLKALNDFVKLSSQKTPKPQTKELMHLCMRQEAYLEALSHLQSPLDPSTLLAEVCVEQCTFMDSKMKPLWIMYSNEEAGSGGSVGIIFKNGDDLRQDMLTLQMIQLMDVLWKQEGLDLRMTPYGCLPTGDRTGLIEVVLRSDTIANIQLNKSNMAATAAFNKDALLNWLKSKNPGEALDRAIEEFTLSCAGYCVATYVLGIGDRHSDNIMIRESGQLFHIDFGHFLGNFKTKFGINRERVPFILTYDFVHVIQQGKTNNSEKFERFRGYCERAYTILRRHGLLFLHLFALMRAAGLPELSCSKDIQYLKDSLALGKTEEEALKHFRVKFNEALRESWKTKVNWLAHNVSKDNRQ
Conditions: cited from earlier work.

The test system of a further assay is protein kinases. Conditions: cited from earlier work.
The subject of assay [3] is ovalbumin-induced airway inflammation. To be noted: cited from earlier work.

The structures appear in SMILES notation.

T1 sequence (P27986 whole entry partner, one chain of several): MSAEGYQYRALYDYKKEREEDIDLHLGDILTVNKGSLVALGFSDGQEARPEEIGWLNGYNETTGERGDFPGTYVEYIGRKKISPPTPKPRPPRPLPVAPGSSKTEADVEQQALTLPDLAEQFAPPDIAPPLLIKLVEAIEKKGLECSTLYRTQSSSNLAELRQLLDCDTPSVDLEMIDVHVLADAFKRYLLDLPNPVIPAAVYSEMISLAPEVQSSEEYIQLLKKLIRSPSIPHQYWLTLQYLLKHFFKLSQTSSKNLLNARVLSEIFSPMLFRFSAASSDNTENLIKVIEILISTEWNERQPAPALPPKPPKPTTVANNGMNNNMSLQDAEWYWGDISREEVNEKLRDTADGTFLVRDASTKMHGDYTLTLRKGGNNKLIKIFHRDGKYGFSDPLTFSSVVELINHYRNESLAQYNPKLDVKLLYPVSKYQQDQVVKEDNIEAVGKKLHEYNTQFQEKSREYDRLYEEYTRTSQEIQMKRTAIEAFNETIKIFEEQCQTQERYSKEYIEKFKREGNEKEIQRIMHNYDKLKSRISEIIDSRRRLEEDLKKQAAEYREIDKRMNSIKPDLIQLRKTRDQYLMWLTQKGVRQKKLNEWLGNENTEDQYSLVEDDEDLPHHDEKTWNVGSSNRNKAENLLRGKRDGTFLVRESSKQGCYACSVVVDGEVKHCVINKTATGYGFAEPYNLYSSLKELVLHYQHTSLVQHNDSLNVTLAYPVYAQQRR

For the compound `C[C@@H](Nc1ncnc(N)c1C#N)c1cc2ncccc2nc1-c1ccccc1F` (single isomer, unassigned; isomer 4) [Example 2 R-isomer], the “PI3K delta biochemical potency, one isomer relative to the other” value at PI3K delta is listed as “less potent”. In the case of `C[C@H](Nc1ncnc(N)c1C#N)c1cc2ncccc2nc1-c1ccccc1F` (single isomer, unassigned; isomer 4) [Example 2 S-isomer], on PI3K delta, the “PI3K delta biochemical potency, one isomer relative to the other” value is reported as “more potent”. Consider `C[C@@H](Nc1ncnc(N)c1C#N)c1cc2ncccc2nc1-c1cc(F)cc(F)c1` (single isomer, unassigned; isomer 4) [Example 3 R-isomer], for which, at PI3K delta, the “PI3K delta biochemical potency, one isomer relative to the other” value is reported as “less potent”. Same read-out and setting: as for `C[C@H](Nc1ncnc(N)c1C#N)c1cc2ncccc2nc1-c1cc(F)cc(F)c1` (single isomer, unassigned; isomer 4) [Example 3 S-isomer], the entry is “more potent”. Turning to `C[C@@H](Nc1ncnc(N)c1C#N)c1nc2cccnc2cc1-c1ccccc1` (single isomer, unassigned; isomer 4) [Example 4 R-isomer], the “PI3K delta biochemical potency, one isomer relative to the other” value at PI3K delta is on record as “less potent”.

Turning to `C[C@H](Nc1ncnc(N)c1C#N)c1nc2cccnc2cc1-c1ccccc1` (single isomer, unassigned; isomer 4) [Example 4 S-isomer], the “PI3K delta biochemical potency, one isomer relative to the other” value on PI3K delta was “more potent”. For `O=C1NC(=O)/C(=C\c2ccc3nccnc3c2)S1` [AS 605240], the “efficacy in a mouse model of rheumatoid arthritis” value in assay [1] is given as “efficacious”. Also, the “onset of disease in a model of systemic lupus erythematosis” value in assay [2] is “delay onset of disease”. Turning to `Cc1ccccc1-n1c(Cn2cnc3c(N)ncnc32)nc2cccc(C)c2c1=O` [IC87114], the “inhibition of p110δ” value at p110δ is “high nanomolar range (triple digit)”. Also, the “activity against any protein kinases tested” value in the assay on protein kinases is “no activity”. Moreover, the “inflammation and disease in a murine model of asthma” value in assay [3] was “significantly ameliorate inflammation and disease”.
